Tested on: phospho-CREB downstream of VPAC1/2 receptor
Experiment: phosphorylation of CREB in activated human T cells
Format: cell-based
Settings: 6 h, 3 uM, compared with control scrambled peptide; FIG. 17e
Experimental: (FIG. 17A) Representative western blot and (FIG. 17B) quantified expression levels of VPAC1 and VPAC2; and (FIG. 17C) PD-1 and CTLA-4 in lysates of healthy human T cells expanded with plate bound human anti-CD3 antibodies for 0, 3, 6, 12, 24, 48 and 72 hours. Lower molecular weight band of 25kD shown for VPAC2-specific expression as confirmed from our VPAC2 KO model. Percentage of (FIG. 17D) CD69 expression at 24 h post activation (FIG. 17E) phosphorylation of CREB (phospho-CREB) downstream of VPAC1/2 receptor at 6 h and in CD4+ and CD8+ T cells normalized to levels in control with no peptide. PDAC patient peripheral blood T cells were expanded for 9 days with plate bound human anti-CD3 antibodies+/−ANT008 and the (FIG. 17F) percentage of Tregs was quantified using the (FIG. 17G) gating strategy shown. Percentage of PD1+, Tim-3+, Lag3+, PD1+Tim-3+, PD1+Lag3+ and PD1+Tim-3+Lag-3+(triple positive) in (FIG. 17H) CD4+ and (FIG. 17I) CD8+ subsets is shown. Statistical differences in FIGS. 17D and 17E were calculated via repeated measures ANOVA followed by Dunnett's post-test where each sample in the treatment group was compared to the matched sample in the control group (scrambled treated). Statistical differences in FIGS. 17F, 17H, and 17I were calculated via paired student T-test. Error bars show mean±SEM. […], **p<0.01 and ***p<0.001. […]

KPRRPYTSDYTRLRKQMAVKKYLNLILN [ANT308]
activation-induced phosphorylation of CREB: more potently inhibited

Reference: patent US20240247048A1 (EMORY UNIVERSITY, priority 2021, published 2024)
